Where two headings read alike, the source gives them in different places.
Experiments:
[1] = tested on: NRRL 11459; assay: Inhibitor sensitivity of the producing strain (inhibitor in ISP #2 agar); assay type: cell-based, Streptomyces flocculus
Procedure: (§1) The cell wall sugars are determined using a modification of the procedure of M. Lechevalier, "Chemical Methods as Criteria for the Separation of Actinomycetes Into Genera", workshop sponsored by the subcommittee on Actionomycetes of the American Society of Microbology, Dr. Thoman G. Pridham, Convenor, held at the Institute of Microbology, Rutgurs University, New Brunswick, N.J., 1971. The isomer of diaminopimelic acid is determined using the method of B. Becker Appl. Microbiol., 11 421 ([…]). Amino acid analysis is determined with washed cell wall fragments. Melanoid pigments are determined using ISP #6 (peptone-yeast extract iron agar) and ISP #7 (tyrosine agar). Inhibitors are tested by incorporating varing concentrations of inhibitors into ISP #2 agar plates and streaking the culture on the surface. Starch hydrolysis is determined by testing for the presence of starch with iodine on ISP #4 agar plates. Temperature range, NaCl tolerance, pH range, and antibiotic sensitivity are done using ISP #2 agar medium. The range of temperatures are: 25°, 28°, 30°, 34°, 37°, 40°, 45°, 50°, 55° C. NaCl tolerance is measured by adding NaCl to the agar to equal: 0, 1, 2, 3, 4, 5, 6, 8, 10, 12% and incubating at 30° C. for 7 days. Antibiotic sensitivity is determined using sensitivity discs padded onto seeded agar plates of ISP #2 medium and incubating at 30° C. for 14 days.

[2] = tested on: NRRL 11459; assay: Antibiotic sensitivity of the producing strain (sensitivity discs on seeded ISP #2 agar); assay type: cell-based, Streptomyces flocculus; conditions: 30° C., 14 days; also: key: +: sensitive (zones of inhibition); -: resistat (no zones of inhibition)
Procedure: as §1

## O=[Te]([O-])[O-].[K+].[K+] [Potassium Tellurite]
[1]; NRRL 11459, ISP #2 agar plates
  Inhibitor sensitivity, MIC: > 500 µg/mL

## Cc1cc2nc3cc(C)c(N)cc3[n+](-c3ccccc3)c2cc1N.[Cl-] [Safranin]
[1]; NRRL 11459, ISP #2 agar plates
  Inhibitor sensitivity, MIC: 10 µg/mL

## [N-]=[N+]=[N-] [Sodium Azide]
[1]; NRRL11459, read-out: Inhibitor sensitivity, MIC
  MIC: 10 µg/mL

## O=[Se](O)O [Sodium Selenite]
[1]; NRRL11459, NRRL 11459, ISP #2 agar plates, read-out: Inhibitor sensitivity, MIC
  MIC: 25 µg/mL

## [H]/N=C(/N)N[C@H]1[C@H](O)[C@@H](O)[C@H](O[C@@H]2O[C@@H](C)[C@](O)(C=O)[C@H]2O[C@@H]2O[C@@H](CO)[C@H](O)[C@@H](O)[C@@H]2NC)[C@@H](N/C(N)=N\[H])[C@@H]1O [Streptomycin]
[2]; 10 μg/disc
  Antibiotic sensitivity: +

## CN(C)[C@@H]1C(O)=C(C(N)=O)C(=O)[C@@]2(O)C(O)=C3C(=O)c4c(O)cccc4[C@@](C)(O)[C@H]3C[C@@H]12 [Tetracycline]
[2]; 30 μg/disc
  Antibiotic sensitivity: +

## CC(=O)[O-].[Tl+] [Thallium Acetate]
[1]
  Inhibitor sensitivity, MIC: < 10 µg/mL

## CN[C@H](CC(C)C)C(=O)N[C@H]1C(=O)N[C@@H](CC(N)=O)C(=O)N[C@H]2C(=O)N[C@H]3C(=O)N[C@H](C(=O)N[C@H](C(=O)O)c4cc(O)cc(O)c4-c4cc3ccc4O)[C@H](O)c3ccc(c(Cl)c3)Oc3cc2cc(c3O[C@@H]2O[C@H](CO)[C@@H](O)[C@H](O)[C@H]2O[C@H]2C[C@](C)(N)[C@H](O)[C@H](C)O2)Oc2ccc(cc2Cl)[C@H]1O [Vancomycin]
[2]; 30 μg/disc
  Antibiotic sensitivity: +

## Polymixin B
[2]; 300 units/disc
  Antibiotic sensitivity: +

Source: patent US4252898A
